The source of these data is US10973832B2, “Muscarinic M1 receptor agonists” (Heptares Therapeutics Limited, priority 2011, dated 2021).

What all share (assay type): cell-based
For experiment [1], the target named is T1, human muscarinic M1 receptor (Homo sapiens, UniProt P11229).
T1 sequence (P11229 1-460): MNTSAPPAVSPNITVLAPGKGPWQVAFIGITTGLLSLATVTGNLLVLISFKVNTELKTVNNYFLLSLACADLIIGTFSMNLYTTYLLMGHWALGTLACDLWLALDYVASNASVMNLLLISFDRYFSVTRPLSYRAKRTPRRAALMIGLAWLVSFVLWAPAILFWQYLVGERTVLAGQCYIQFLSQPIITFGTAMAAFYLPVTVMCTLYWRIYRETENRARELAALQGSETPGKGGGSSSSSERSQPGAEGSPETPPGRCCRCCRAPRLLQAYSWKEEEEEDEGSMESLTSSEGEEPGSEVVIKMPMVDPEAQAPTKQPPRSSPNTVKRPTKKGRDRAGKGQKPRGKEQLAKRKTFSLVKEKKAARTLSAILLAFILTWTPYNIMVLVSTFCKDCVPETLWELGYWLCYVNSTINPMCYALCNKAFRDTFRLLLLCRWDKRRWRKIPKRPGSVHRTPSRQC
In words: Phospho-ERK1/2 assay, muscarinic M1. The following applies: for EC50: CHO cells expressing human M1, phospho-ERK1/2 Alphascreen, read-out: pEC50 M1 (converted); for Emax: CHO, read-out: % Emax cf. ACh (M1). How it is done: (§1) Functional assays were performed using the Alphascreen Surefire phospho-ERK1/2 assay (Crouch & Osmond, Comb. Chem. High Throughput Screen, 2008). ERK1/2 phosphorylation is a downstream consequence of both Gq/11 and Gi/o protein coupled receptor activation, making it highly suitable for the assessment of M1, M3 (Gq/11 coupled) and M2, M4 receptors (Gi/o coupled), rather than using different assay formats for different receptor subtypes. CHO cells stably expressing the human muscarinic M1, M2, M3 or M4 receptor were plated (25K/well) onto 96-well tissue culture plates in MEM-alpha+10% dialysed FBS. Once adhered, cells were serum-starved overnight. Agonist stimulation was performed by the addition of 5 μL agonist to the cells for 5 min (37° C.). Media was removed and 50 μL of lysis buffer added. After 15 min, a 4 μL sample was transferred to 384-well plate and 7 μL of detection mixture added. Plates were incubated for 2 h with gentle agitation in the dark and then read on a PHERAstar plate reader.
(§2) pEC50 and Emax figures were calculated from the resulting data for each receptor subtype.
(In general: Bead proximity is the source of the signal in Alpha formats.)

The target in experiment [2] is T2, human muscarinic M3 receptor (Homo sapiens, UniProt P20309).
T2 construct: expressed in transfected cells
T2 sequence (P20309 whole entry): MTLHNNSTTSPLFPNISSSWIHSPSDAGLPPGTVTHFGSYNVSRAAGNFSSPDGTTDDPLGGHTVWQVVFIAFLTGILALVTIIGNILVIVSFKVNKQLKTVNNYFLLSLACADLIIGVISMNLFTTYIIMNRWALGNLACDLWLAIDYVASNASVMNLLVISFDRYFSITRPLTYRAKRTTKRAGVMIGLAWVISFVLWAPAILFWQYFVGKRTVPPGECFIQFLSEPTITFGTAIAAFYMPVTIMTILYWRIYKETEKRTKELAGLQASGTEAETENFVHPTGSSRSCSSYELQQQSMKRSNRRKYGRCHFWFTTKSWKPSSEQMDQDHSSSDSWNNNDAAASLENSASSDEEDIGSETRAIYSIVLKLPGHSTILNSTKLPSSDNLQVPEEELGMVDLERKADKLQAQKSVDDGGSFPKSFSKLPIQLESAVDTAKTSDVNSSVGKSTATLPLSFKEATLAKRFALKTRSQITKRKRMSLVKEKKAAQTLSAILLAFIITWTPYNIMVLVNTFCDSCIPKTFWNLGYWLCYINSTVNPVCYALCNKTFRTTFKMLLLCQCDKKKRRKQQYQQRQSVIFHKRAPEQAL
As to the kind of experiment: Phospho-ERK1/2 assay, muscarinic M3. The following applies: for EC50: CHO cells expressing human M3, phospho-ERK1/2 Alphascreen, read-out: pEC50 M3 (converted); for Emax: CHO, read-out: % Emax cf. ACh (M3). How it is done: as §1, §2

In experiment [3] the target is T3, human muscarinic M2 receptor (Homo sapiens, UniProt P08172).
T3 sequence (P08172 1-466): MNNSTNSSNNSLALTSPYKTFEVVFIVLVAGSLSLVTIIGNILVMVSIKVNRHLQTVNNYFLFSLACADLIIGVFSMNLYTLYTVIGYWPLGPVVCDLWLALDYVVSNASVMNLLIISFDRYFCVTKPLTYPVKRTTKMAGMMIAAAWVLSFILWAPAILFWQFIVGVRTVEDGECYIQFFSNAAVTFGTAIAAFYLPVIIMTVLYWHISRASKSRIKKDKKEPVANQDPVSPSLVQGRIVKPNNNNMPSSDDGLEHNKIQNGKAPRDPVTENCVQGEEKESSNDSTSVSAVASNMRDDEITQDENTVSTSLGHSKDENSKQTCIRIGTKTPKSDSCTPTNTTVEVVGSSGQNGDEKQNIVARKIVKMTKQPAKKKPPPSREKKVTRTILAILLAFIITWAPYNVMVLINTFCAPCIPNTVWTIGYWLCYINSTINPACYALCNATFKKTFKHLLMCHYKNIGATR
As to the kind of experiment: Phospho-ERK1/2 assay, muscarinic M2. The following applies: for EC50: CHO cells expressing human M2, phospho-ERK1/2 Alphascreen, read-out: pEC50 M2 (converted); for Emax: CHO, read-out: % Emax cf. ACh (M2). As to the method:
as §1, §2

Experiment [4] addresses T4, human muscarinic M4 receptor (Homo sapiens, UniProt P08173).
T4 construct: expressed in transfected cells
T4 sequence (P08173 1-479): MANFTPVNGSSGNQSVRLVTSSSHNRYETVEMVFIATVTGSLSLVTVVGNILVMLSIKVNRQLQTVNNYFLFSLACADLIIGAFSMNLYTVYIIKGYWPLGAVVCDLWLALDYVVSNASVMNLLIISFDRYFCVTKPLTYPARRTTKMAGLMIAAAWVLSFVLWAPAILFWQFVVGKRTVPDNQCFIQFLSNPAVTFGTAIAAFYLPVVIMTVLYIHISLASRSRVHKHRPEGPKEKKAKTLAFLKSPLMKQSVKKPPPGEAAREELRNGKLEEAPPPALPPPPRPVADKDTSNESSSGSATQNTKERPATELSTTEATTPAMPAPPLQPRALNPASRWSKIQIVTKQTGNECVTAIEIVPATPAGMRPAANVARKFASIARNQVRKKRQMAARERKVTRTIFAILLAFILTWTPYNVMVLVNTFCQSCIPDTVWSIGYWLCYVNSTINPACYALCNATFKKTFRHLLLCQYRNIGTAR
As to the kind of experiment: Phospho-ERK1/2 assay, muscarinic M4. The following applies: for EC50: CHO cells expressing human M4, phospho-ERK1/2 Alphascreen, read-out: pEC50 M4 (converted); for Emax: CHO, read-out: % Emax cf. ACh (M4). How it is done:
as §1, §2

The term Emax denotes the greatest response seen or fitted, relative to the assay's reference. With `CC#CCOC(=O)N1CCCC(N2CCC(OC)(C(=O)NC3(C)CCC3)CC2)CC1` (centres unmarked) [Example 80, but-2-yn-1-yl 4-{4-methoxy-4-[(1-methylcyclobutyl)carbamoyl]piperidin-1-yl}azepane-1-carboxylate], the EC50 in experiment [1] is 37.2 nM; in experiment [2] it was over 20000 nM; in experiment [3], over 20000 nM; in experiment [4], 525 nM. For the same compound, the Emax came out at 89% in experiment [1], 7% in experiment [2], 15% in experiment [3] and 71% in experiment [4].
With `CCOC(=O)N1CCCC(N2CCC(C(=O)NCC3CC3)CC2)CC1` (centres unmarked) [Example 15, ethyl 4-(4-((cyclopropylmethyl)carbamoyl)piperidin-1-yl)azepane-1-carboxylate], the EC50 in experiment [1] was 112 nM; in experiment [2], over 20000 nM; in experiment [3], over 20000 nM; in experiment [4], 550 nM. For the same compound, the Emax in experiment [1] was 107%; in experiment [2] it was 12%; in experiment [3], 5%; in experiment [4] it was 67%.
For `C#CCOC(=O)N1CCCC(N2CCC(C(=O)NCC(C)C)CC2)CC1` (centres unmarked) [Example 57, prop-2-yn-1-yl-4-(4-((2-methylpropyl)carbamoyl)piperidin-1-yl)azepane-1-carboxylate], the EC50 in experiment [1] is 93.3 nM; in experiment [2] it was over 20000 nM; in experiment [3], over 20000 nM; in experiment [4], 417 nM. Moreover, the Emax was 93% in experiment [1], 8% in experiment [2], 5% in experiment [3] and 82% in experiment [4].
As to `CCOC(=O)N1CCCC(N2CCC(C(=O)NCC(C)CC)CC2)CC1` (centres unmarked) [Example 8, ethyl 4-(4-((2-methylbutyl)carbamoyl)piperidin-1-yl)azepane-1-carboxylate], the EC50 in experiment [1] is 151 nM; in experiment [2] it was over 20000 nM; in experiment [3], over 20000 nM; in experiment [4], 1660 nM. The Emax in experiment [1] is 93%; in experiment [2] it was 2%; in experiment [3], 3%; in experiment [4], 55%.
`CCOC(=O)N1CCCC(N2CCC(C(=O)NCC3(CC)CCC3)CC2)CC1` (centres unmarked) [Example 37, ethyl 4-(4-(((1-ethylcyclobutyl)methyl)carbamoyl)piperidin-1-yl)azepane-1-carboxylate]: the EC50 is 13.8 nM in experiment [1], over 20000 nM in experiment [2], over 20000 nM in experiment [3] and 191 nM in experiment [4]. Also, the Emax in experiment [1] was found to be 87%; in experiment [2] it was 10%; in experiment [3], 8%; in experiment [4], 75%.
Consider `CCOC(=O)N1CCCC(N2CCC(C(=O)NCC3CCC3)CC2)CC1` (centres unmarked) [Example 11, ethyl 4-(4-((cyclobutylmethyl)carbamoyl)piperidin-1-yl)azepane-1-carboxylate], for which the EC50 is 60.3 nM in experiment [1], over 20000 nM in experiment [2], over 20000 nM in experiment [3] and 427 nM in experiment [4]. Besides, the Emax in experiment [1] is 117%; in experiment [2] it was 11%; in experiment [3], 7%; in experiment [4] it was 67%.
Turning to `CCOC(=O)N1CCCC(N2CCC(OC)(C(=O)NCC3(C)CCC3)CC2)CC1` (centres unmarked) [Example 81, ethyl 4-(4-methoxy-4-{[(1-methylcyclobutyl)methyl]carbamoyl}piperidin-1-yl)azepane-1-carboxylate], the EC50 was 141 nM in experiment [1], over 20000 nM in experiment [2], over 20000 nM in experiment [3] and over 20000 nM in experiment [4]. Further, the Emax was 110% in experiment [1], 7% in experiment [2], 0% in experiment [3] and 9% in experiment [4].
Regarding `CCOC(=O)N1CCCC(N2CCC(C(=O)NC3(C)CCCCC3)CC2)CC1` (centres unmarked) [Example 17, ethyl 4-(4-((1-methylcyclohexyl)carbamoyl)piperidin-1-yl)azepane-1-carboxylate], the EC50 in experiment [1] was 61.7 nM; in experiment [2] it was over 20000 nM; in experiment [3] it was over 20000 nM; in experiment [4], 724 nM. The Emax in experiment [1] was 104%; in experiment [2], 5%; in experiment [3] it was 0%; in experiment [4], 46%.
For the compound `CCOC(=O)N1CCCC(N2CCC(C(=O)NC(C)(C)C(C)C)CC2)CC1` (centres unmarked) [Example 31, ethyl 4-(4-((2,3-dimethylbutan-2-yl)carbamoyl)piperidin-1-yl)azepane-1-carboxylate], the EC50 in experiment [1] was 31.6 nM; in experiment [2], over 20000 nM; in experiment [3], over 20000 nM; in experiment [4] it was 123 nM. The Emax in experiment [1] worked out at 122%; in experiment [2], 13%; in experiment [3], 0%; in experiment [4] it was 90%.
With `CCOC(=O)N1CCCC(N2CCC(C)(C(=O)NCC(C)C)CC2)CC1` (centres unmarked) [Example 56, ethyl 4-(4-methyl-4-((2-methylpropyl)carbamoyl)piperidin-1-yl)azepane-1-carboxylate], the EC50 was 64.6 nM in experiment [1], over 20000 nM in experiment [2], over 20000 nM in experiment [3] and 1350 nM in experiment [4]. The Emax in experiment [1] came out at 108%; in experiment [2] it was 8%; in experiment [3] it was 4%; in experiment [4], 46%.
As to `CCOC(=O)N1CCCC(N2CCC(C(=O)NCC3(C)CCCC3)CC2)CC1` (centres unmarked) [Example 18], the EC50 is 83.2 nM in experiment [1], over 20000 nM in experiment [2], over 20000 nM in experiment [3] and 589 nM in experiment [4]. The Emax in experiment [1] turned out to be 101%; in experiment [2], 4%; in experiment [3] it was 7%; in experiment [4] it was 39%.
In the case of `CCOC(=O)N1CCCC(N2CCC(OC)(C(=O)NC3(C)CCC3)CC2)CC1` (centres unmarked) [Example 79, ethyl 4-{4-methoxy-4-[(1-methylcyclobutyl)carbamoyl]piperidin-1-yl}azepane-1-carboxylate], the EC50 in experiment [1] is 97.7 nM; in experiment [2], over 20000 nM; in experiment [3], over 20000 nM; in experiment [4], 871 nM. Further, the Emax was determined as 113% in experiment [1], 27% in experiment [2], 7% in experiment [3] and 27% in experiment [4].
With `[2H]C([2H])([2H])C([2H])(C([2H])([2H])[2H])C([2H])([2H])NC(=O)C1CCN(C2CCCN(C(=O)OCC)CC2)CC1` (centres unmarked) [Example 75, ethyl 4-(4-{[2-(^2H3)methyl(^2H6)propyl]carbamoyl}piperidin-1-yl)azepane-1-carboxylate], the EC50 is 87.1 nM in experiment [1], over 20000 nM in experiment [2], over 20000 nM in experiment [3] and 794 nM in experiment [4]. Also, the Emax turned out to be 102% in experiment [1], 13% in experiment [2], 14% in experiment [3] and 87% in experiment [4].
